Literature values, collected in patent US20210198629A1, “COMPOSITIONS AND METHODS FOR INCREASING BEIGING OF WHITE ADIPOSE TISSUE” (University of Georgia Research Foundation, Inc., priority 2018, published 2021).
Read-outs that look alike come from different tables or passages of the source.

Experiments:
[1] = system: Ucp1; conditions: cited from earlier work
[2] = system: EGFR mutant PC9 cancer cells; conditions: cited from earlier work
[3] = target: T1, BRD9 (Homo sapiens, UniProt Q9H8M2); conditions: cited from earlier work
T1 sequence (Q9H8M2 1-597): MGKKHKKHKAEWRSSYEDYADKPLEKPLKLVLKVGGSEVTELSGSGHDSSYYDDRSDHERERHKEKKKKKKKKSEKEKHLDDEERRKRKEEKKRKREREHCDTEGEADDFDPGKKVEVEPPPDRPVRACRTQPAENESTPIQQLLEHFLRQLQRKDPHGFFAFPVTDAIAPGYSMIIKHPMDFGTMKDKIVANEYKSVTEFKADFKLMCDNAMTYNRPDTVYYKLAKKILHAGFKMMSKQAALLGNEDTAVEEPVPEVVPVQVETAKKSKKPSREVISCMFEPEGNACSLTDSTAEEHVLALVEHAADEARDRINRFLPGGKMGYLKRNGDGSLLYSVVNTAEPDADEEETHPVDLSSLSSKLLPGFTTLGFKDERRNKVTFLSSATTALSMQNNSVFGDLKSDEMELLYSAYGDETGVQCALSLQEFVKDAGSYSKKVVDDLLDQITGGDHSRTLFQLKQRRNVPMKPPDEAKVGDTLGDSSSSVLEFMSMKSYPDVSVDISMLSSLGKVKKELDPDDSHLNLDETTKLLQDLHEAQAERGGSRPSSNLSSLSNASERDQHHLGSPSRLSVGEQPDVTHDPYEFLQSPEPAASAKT

[4] = system: rhabdoid tumor cells; conditions: combinatorial treatment with cytostatic compounds (e.g., cisplatin); cited from earlier work

Structure (SMILES): C=C(c1ccc(C(=O)O)cc1)c1cc2c(cc1C)C(C)(C)CCC2(C)C [Bexarotene]
- WAT beiging, increase of Ucp1 ([1]; oral administration 50 mg/kg/d, for 28 days, only in subcutaneous WATs): 1.5 fold

Structure (SMILES): C/C=C/Cn1cc(-c2cc(OC)c(C(=O)N3CCOCC3)cc2OC)c2cc[nH]c2c1=O [GNE-375]
- drug resistance development ([2]; EGFR mutant PC9 cancer cells): prevent the drug resistance development
- cell viability ([2]; PC9 study): little effects
- expression of ALDH1A1 ([2]; PC9 study): decreases
- global gene expression ([2]; PC9 study): little effects

Structure (SMILES): COc1ccc(Br)cc1/C=C1\SC(=O)N(Cc2ccc(C)cc2)C1=O [GQ-16]
- WAT beiging, increase of Ucp1 ([1]; oral administration 40 mg/kg/d, for 14 days): 5 fold

Structure (SMILES): CCn1cc(-c2cccc(C(F)(F)F)c2)c2sc(C(=N)NC3CCS(=O)(=O)CC3)cc2c1=O [I-BRD9, N′-(1,1-dioxothian-4-yl)-5-ethyl-4-oxo-7-[3-(trifluoromethyl)phenyl]thieno[3,2-c]pyridine-2-carboximidamide]
- selectivity over the BET family ([3]; BRD9 vs BET family): > 700 fold
- selectivity over the highly homologous BRD7 ([3]; BRD9 vs BRD7): 200 fold
- proliferation of rhabdoid tumor cells [4]: synergistically inhibit

Structure (SMILES): CC[C@H](CO)Nc1nc(NCc2ccccc2)c2ncn(C(C)C)c2n1 [Roscovitine]
- WAT beiging ([1]; intraperitoneal injection 50 mg/kg/d for 42 days): induced WAT beiging

Structure (SMILES): CCc1cc2c(c(CC)n1)CCC(=O)N2Cc1ccc(-c2ccccc2-c2nn[nH]n2)cc1 [ZD7155]
- WAT beiging, increase of Ucp1 ([1]; intraperitoneal injection 1 mg/kg/d for 14 days): less than 2 fold
